Test results as given in EPA's ToxRefDB 2.

Tests used:
mouse [1] = settings: Carcinogenicity, cd1, Oral, Feed, dose end: 24 month, group: systemic
rat [2] = settings: Combined chronic toxicity/carcinogenicity; sprague dawley; Oral; Feed; dose end: 24 month; group: systemic; systemic / in life observation / body weight / body weight gain
dog [3] = settings: Subchronic oral toxicity in nonrodent, beagle, Feed, dose end: 26 week, group: systemic
rat [4] = settings: Subchronic oral toxicity in rodents, other, Feed, dose end: 13 week, group: systemic
rat [5] = settings: Prenatal developmental toxicity study, sprague dawley, Oral, Gavage/Intubation, dose end: 19 GD
rat [6] = settings: Combined chronic toxicity/carcinogenicity, sprague dawley, Oral, Gavage/Intubation, dose end: 104 week, group: systemic
mouse [7] = settings: Carcinogenicity, cd1, Dermal, Topical, dose end: 18 month, group: systemic
rat [8] = settings: Subchronic dermal toxicity, sprague dawley, Topical, dose end: 90 day, group: systemic
primate = settings: Chronic toxicity, macaque, Oral, Gavage/Intubation, dose end: 52 week, group: systemic
rat [9] = settings: Multigenerational reproductive toxicity study, sprague dawley, Oral, Gavage/Intubation, dose end: 2 generation
rat [10] = settings: Subchronic oral toxicity in rodents, sprague dawley, Gavage/Intubation, dose end: 13 week, group: systemic
dog [11] = settings: Subchronic oral toxicity in nonrodent, beagle, Feed, dose end: 228 day, group: systemic, systemic / pathology microscopic / kidney / eosinophilic focus + systemic / pathology microscopic / kidney / pigmentation + systemic / …
rat [12] = settings: Subchronic oral toxicity in rodents, fischer, Feed, dose end: 13 week, group: systemic
rat [13] = settings: Multigenerational reproductive toxicity study, sprague dawley, Oral, Feed, dose end: 2 generation
dog [14] = settings: Subchronic oral toxicity in nonrodent, beagle, Feed, dose end: 184 day, group: systemic, systemic / clinical chemistry / [other] / [other] + systemic / clinical chemistry / aspartate aminotransferase (ast/sgot) / aspartate …
rat [15] = settings: Prenatal developmental toxicity study, sprague dawley, Oral, Gavage/Intubation, dose end: 15 GD
dog [16] = settings: Chronic toxicity; beagle; Oral; Feed; dose end: 52 week; group: systemic; systemic / clinical chemistry / creatinine / creatinine + systemic / clinical chemistry / urea nitrogen / urea nitrogen
mouse [17] = settings: Combined chronic toxicity/carcinogenicity, other, Oral, Feed, dose end: 95 week, group: systemic
mouse [18] = settings: Carcinogenicity, cd1, Oral, Feed, dose end: 18 month, group: systemic
dog [19] = settings: Chronic toxicity; beagle; Oral; Feed; dose end: 53 week; group: systemic; systemic / pathology microscopic / stomach / [other] + systemic / pathology microscopic / stomach / inflammation
dog [20] = settings: Subchronic oral toxicity in nonrodent, beagle, Feed, dose end: 13 week, group: systemic, systemic / clinical chemistry / alanine aminotransferase (alt/sgpt) / alanine aminotransferase (alt/sgpt) + systemic / clinical chemistry / …
rat [21] = settings: Combined chronic toxicity/carcinogenicity, wistar, Oral, Feed, dose end: 24 month, group: systemic
[22] = systemic / in life observation / body weight / body weight + systemic / in life observation / body weight / body weight gain
[23] = systemic / in life observation / body weight / body weight + systemic / in life observation / body weight / body weight gain + systemic / …
[24] = systemic / organ weight / liver / absolute + systemic / organ weight / liver / relative to body weight
[25] = group: developmental, developmental / developmental malformation / bone / [other] + developmental / developmental malformation / bone / unossified
[26] = group: maternal, systemic / in life observation / body weight / body weight gain + systemic / in life observation / clinical signs / nasal discharge + …
[27] = systemic / pathology microscopic / skeletal muscle / degeneration
[28] = systemic / pathology microscopic / skeletal muscle / degeneration + systemic / in life observation / body weight / body weight + systemic / …
[29] = systemic / in life observation / body weight / body weight + systemic / in life observation / clinical signs / abnormal movements + systemic…
[30] = systemic / pathology microscopic / skeletal muscle / atrophy
[31] = systemic / pathology microscopic / skeletal muscle / atrophy + systemic / in life observation / body weight / body weight + systemic / in …
[32] = systemic / in life observation / body weight / body weight + systemic / in life observation / clinical signs / emesis
[33] = group: offspring, developmental / developmental landmark / eye opening / eye opening + developmental / developmental landmark / pinna unfolding / pinna …
[34] = group: parental, systemic / in life observation / clinical signs / salivation
[35] = group: reproductive, reproductive / offspring survival early / litter size / litter size
[36] = systemic / pathology microscopic / kidney / degeneration + systemic / hematology / platelet / platelet + systemic / in life observation / …
[37] = group: offspring, developmental / developmental malformation / bone / exencephaly + developmental / developmental malformation / eye / ablepharia
[38] = group: offspring, developmental / developmental malformation / bone / exencephaly + developmental / developmental malformation / eye / ablepharia + …
[39] = group: parental, systemic / pathology microscopic / kidney / degeneration
[40] = group: parental, systemic / pathology microscopic / kidney / degeneration + systemic / in life observation / body weight / body weight + systemic / in life …
[41] = group: developmental, developmental / developmental malformation / bone / brachycephaly + developmental / developmental malformation / bone / delayed ossification…
[42] = group: maternal, systemic / in life observation / clinical signs / [other] + systemic / in life observation / clinical signs / alopecia + systemic / in life …
[43] = systemic / clinical chemistry / chloride / chloride + systemic / hematology / erythrocyte (rbc) count differential / erythrocyte (rbc) + …
[44] = systemic / clinical chemistry / urea nitrogen / urea + systemic / clinical chemistry / phosphorus / phosphorus

SMILES: Nc1nc(N)nc(NC2CC2)n1 [Cyromazine]
- LOAEL (mouse [1]; systemic / in life observation / body weight / body weight): 150 mg/kg/day
- LEL (mouse [1]; [22]): 150 mg/kg/day
- NEL (mouse [1]; [23]): 7.5 mg/kg/day
- NOAEL (mouse [1]; [23]): 7.5 mg/kg/day
- LEL (rat [2]): 15 mg/kg/day
- LOAEL (rat [2]): 15 mg/kg/day
- NEL (rat [2]): 1.5 mg/kg/day
- NOAEL (rat [2]): 1.5 mg/kg/day
- LOAEL (dog [3]; systemic / in life observation / body weight / body weight + systemic / hematology / hematocrit (hct) / hematocrit (hct) + systemic / …): 75 mg/kg/day
- LEL (dog [3]; [22]): 0.75 mg/kg/day
- NEL (dog [3]; [22]): < 0.75 mg/kg/day
- NOAEL (dog [3]; [23]): 7.5 mg/kg/day
- LEL (rat [4]; [24]): 3 mg/kg/day
- LOAEL (rat [4]; [24]): 30 mg/kg/day
- NEL (rat [4]; [24]): < 3 mg/kg/day
- NOAEL (rat [4]; systemic / organ weight / liver / absolute + systemic / organ weight / liver / relative to body weight + systemic / clinical chemistry / …): 3 mg/kg/day
- LEL (rat [5]; [25]): 600 mg/kg/day
- LOAEL (rat [5]; [25]): 600 mg/kg/day
- NEL (rat [5]; [25]): 300 mg/kg/day
- NOAEL (rat [5]; [25]): 300 mg/kg/day
- LOAEL (rat [5]; group: maternal, systemic / in life observation / body weight / body weight gain + systemic / in life observation / clinical signs / nasal discharge): 300 mg/kg/day
- LEL (rat [5]; [26]): 300 mg/kg/day
- NEL (rat [5]; [26]): 100 mg/kg/day
- NOAEL (rat [5]; [26]): 100 mg/kg/day

SMILES: [Na+].[O-]n1ccccc1=S [Sodium pyrithione]
- LEL (rat [6]; [27]): 1.5 mg/kg/day
- LOAEL (rat [6]; [27]): 1.5 mg/kg/day
- NEL (rat [6]; [28]): 0.5 mg/kg/day
- NOAEL (rat [6]; [28]): 0.5 mg/kg/day
- LEL (mouse [7]; [29]): 2 mg/kg/day
- NEL (mouse [7]; [29]): < 2 mg/kg/day
- LOAEL (mouse [7]; systemic / in life observation / mortality / mortality + systemic / pathology microscopic / liver / hypertrophy): 20 mg/kg/day
- NOAEL (mouse [7]; systemic / in life observation / mortality / mortality + systemic / pathology microscopic / lymph node / lymphoma malignant + systemic / in …): 2 mg/kg/day
- LOAEL (rat [8]; [30]): 15 mg/kg/day
- NEL (rat [8]; [31]): 5 mg/kg/day
- NOAEL (rat [8]; [31]): 5 mg/kg/day
- LEL (rat [8]; systemic / pathology microscopic / skeletal muscle / atrophy + systemic / pathology gross / skeletal muscle / reduced size): 15 mg/kg/day
- LEL (primate; [32]): 5 mg/kg/day
- LOAEL (primate; [32]): 25 mg/kg/day
- NEL (primate; [32]): < 5 mg/kg/day
- NOAEL (primate; systemic / in life observation / body weight / body weight + systemic / in life observation / clinical signs / emesis + systemic / in life …): 5 mg/kg/day
- LEL (rat [9]; [33]): 3.5 mg/kg/day
- LOAEL (rat [9]; [33]): 3.5 mg/kg/day
- NEL (rat [9]; [33]): 1.5 mg/kg/day
- NOAEL (rat [9]; [33]): 1.5 mg/kg/day
- LEL (rat [9]; [34]): 0.5 mg/kg/day
- NEL (rat [9]; [34]): < 0.5 mg/kg/day
- LOAEL (rat [9]; group: parental, systemic / pathology microscopic / skeletal muscle / atrophy): 1.5 mg/kg/day
- NOAEL (rat [9]; group: parental, systemic / pathology microscopic / skeletal muscle / atrophy + systemic / in life observation / body weight / body weight + systemic / in …): 0.5 mg/kg/day
- LOAEL (rat [9]; [35]): 3.5 mg/kg/day
- NEL (rat [9]; [35]): 1.5 mg/kg/day
- NOAEL (rat [9]; [35]): 1.5 mg/kg/day
- LEL (rat [9]; group: reproductive, reproductive / offspring survival early / litter size / litter size + reproductive / reproductive performance / fertility / fertility + …): 3.5 mg/kg/day
- LEL (rat [10]; [30]): 2 mg/kg/day
- LOAEL (rat [10]; [30]): 2 mg/kg/day
- NEL (rat [10]; [31]): 0.5 mg/kg/day
- NOAEL (rat [10]; [31]): 0.5 mg/kg/day

SMILES: O=C(O)COc1nc(Cl)c(Cl)cc1Cl [Triclopyr]
- LEL (dog [11]): 5 mg/kg/day
- LOAEL (dog [11]): 5 mg/kg/day
- NEL (dog [11]): < 5 mg/kg/day
- NOAEL (dog [11]): < 5 mg/kg/day
- LOAEL (rat [12]; systemic / pathology microscopic / kidney / degeneration): 20 mg/kg/day
- NEL (rat [12]; [36]): 5 mg/kg/day
- NOAEL (rat [12]; [36]): 5 mg/kg/day
- LEL (rat [12]; systemic / pathology microscopic / kidney / degeneration + systemic / in life observation / body weight / body weight + systemic / in life …): 20 mg/kg/day
- LEL (rat [13]; [37]): 25 mg/kg/day
- LOAEL (rat [13]; [37]): 25 mg/kg/day
- NEL (rat [13]; [38]): 2 mg/kg/day
- NOAEL (rat [13]; [38]): 2 mg/kg/day
- LEL (rat [13]; [39]): 25 mg/kg/day
- LOAEL (rat [13]; [39]): 25 mg/kg/day
- NEL (rat [13]; [40]): 2 mg/kg/day
- NOAEL (rat [13]; [40]): 2 mg/kg/day
- LEL (rat [13]; [35]): 250 mg/kg/day
- LOAEL (rat [13]; [35]): > 250 mg/kg/day
- NEL (rat [13]; [35]): 25 mg/kg/day
- NOAEL (rat [13]; [35]): ≥ 250 mg/kg/day
- LEL (dog [14]): 2.5 mg/kg/day
- LOAEL (dog [14]): 2.5 mg/kg/day
- NEL (dog [14]): 0.5 mg/kg/day
- NOAEL (dog [14]): 0.5 mg/kg/day
- LEL (rat [15]; [41]): 200 mg/kg/day
- LOAEL (rat [15]; [41]): 200 mg/kg/day
- NEL (rat [15]; [41]): 100 mg/kg/day
- NOAEL (rat [15]; [41]): 100 mg/kg/day
- LEL (rat [15]; [42]): 50 mg/kg/day
- LOAEL (rat [15]; [42]): 50 mg/kg/day
- NEL (rat [15]; [42]): < 50 mg/kg/day
- NOAEL (rat [15]; [42]): < 50 mg/kg/day
- LEL (dog [16]): 2.5 mg/kg/day
- LOAEL (dog [16]): 2.5 mg/kg/day
- NEL (dog [16]): 0.5 mg/kg/day
- NOAEL (dog [16]): 0.5 mg/kg/day
- NEL (mouse [17]; systemic / in life observation / body weight / body weight + systemic / urinalysis / protein / protein + systemic / urinalysis / specific …): 2.5 mg/kg/day
- NOAEL (mouse [17]; systemic / organ weight / kidney / absolute + systemic / organ weight / pituitary gland / absolute): 12.5 mg/kg/day
- LOAEL (mouse [17]; systemic / organ weight / kidney / absolute + systemic / organ weight / pituitary gland / absolute + systemic / in life observation / body …): 62.5 mg/kg/day
- LEL (mouse [17]; systemic / urinalysis / protein / protein + systemic / clinical chemistry / urea nitrogen / urea nitrogen + systemic / pathology gross / …): 12.5 mg/kg/day

SMILES: COC(=O)c1ccc(CNS(C)(=O)=O)cc1S(=O)(=O)NC(=O)Nc1nc(OC)cc(OC)n1 [Mesosulfuron-methyl]
- LOAEL (mouse [18]; [43]): > 1070 mg/kg/day
- NEL (mouse [18]; [43]): 10.6 mg/kg/day
- NOAEL (mouse [18]; [43]): ≥ 1070 mg/kg/day
- LEL (mouse [18]; systemic / clinical chemistry / chloride / chloride + systemic / hematology / leukocyte (wbc) count differential / leukocyte (wbc)): 103 mg/kg/day
- LEL (dog [19]): 574 mg/kg/day
- LOAEL (dog [19]): 574 mg/kg/day
- NEL (dog [19]): 155 mg/kg/day
- NOAEL (dog [19]): 155 mg/kg/day
- LEL (dog [20]): 648 mg/kg/day
- LOAEL (dog [20]): > 648 mg/kg/day
- NEL (dog [20]): 348 mg/kg/day
- NOAEL (dog [20]): ≥ 648 mg/kg/day
- LEL (rat [21]; systemic / clinical chemistry / urea nitrogen / urea): 73.8 mg/kg/day
- LOAEL (rat [21]; [44]): > 764 mg/kg/day
- NEL (rat [21]; [44]): 7.46 mg/kg/day
- NOAEL (rat [21]; [44]): ≥ 764 mg/kg/day
